Assay results as given in US11072592B2, “Small molecules that enable cartilage rejuvenation” (The Regents of the University of California, priority 2015, dated 2021).
Entries after “also recorded” stand apart in the source; their conditions may differ. Where two headings read alike, the source gives them in different places.

Tests used:
[1] = test system: human fetal articular chondrocytes; test: Cellular metabolism (Seahorse), human fetal articular chondrocytes; format: cell-based
Description: The mitochondrial assay cellular oxygen consumption and mitochondrial function was carried out to measure basal respiration using XF24 instrument (Seahorse Biosciences) according to manufacturer instructions. Tested cells (100,000 cells per well) we plated into 24-well test plates 48 hours prior to experimentation. Oxygen consumption rates and extracellular acidification rates were measured every 10 minutes for up to 60 minutes (Rate 1-6).

fetal cartilage explants = test: Proliferation (BrdU, EdU) in fetal cartilage explants; format: cell-based, human
Description: FIGS. 26A-26J. LIF/STAT3/MYC signaling is prominent in fetal articular chondrocytes and can activate a fetal-like phenotype in adult cells. (FIG. 26A) Levels of phospho-STAT3 (pSTAT3) and MYC protein were quantitated in human fetal and adult articular chondrocytes relative to histone H3. (FIG. 26B) Effects of soluble LIF receptor (sLIFR) on MYC and pSTAT3 protein levels on fetal articular chondrocytes after 72 hours. (FIG. 26C) Detection of apoptotic cells using TUNEL staining and flow cytometry analysis of fetal articular cartilage explants cultured in the absence (control) or presence of a MYC (10058-F4) or STAT3 (STATTIC) inhibitor for 24 hours. (FIG. 26D) Quantification of proliferating cells via EdU incorporation in fetal articular cartilage explants and also by flow cytometry analysis for BrdU. Scale bars represent 100 μm. (FIG. 26E) Assessment of metabolic activity of human fetal articular chondrocytes cultured in the presence or absence of MYC or STAT3 inhibitors. (FIG. 26F) Migration capacity of fetal articular chondrocytes was assessed using a Transwell® assay in the absence or presence of MYC and STAT3 inhibitors. (FIG. 26G) Protein levels of MYC and pSTAT3 were measured in adult human articular chondrocytes with and without incubation with LIF. […] (FIG. 26H) Migratory capacity of adult human articular chondrocytes in a Transwell® assay measured in the presence or absence of LIF. […]

[2] = test system: fetal articular cartilage explants; test: Apoptosis / survival in fetal articular cartilage explants (TUNEL, flow cytometry); format: cell-based, human; conditions: for fetal chondrocyte survival: Annexin V-FITC cell sorting; for apoptotic cells: fetal cartilage explants, inhibitor 24 hours
Description: FIGS. 26A-26J. LIF/STAT3/MYC signaling is prominent in fetal articular chondrocytes and can activate a fetal-like phenotype in adult cells. (FIG. 26A) Levels of phospho-STAT3 (pSTAT3) and MYC protein were quantitated in human fetal and adult articular chondrocytes relative to histone H3. (FIG. 26B) Effects of soluble LIF receptor (sLIFR) on MYC and pSTAT3 protein levels on fetal articular chondrocytes after 72 hours. (FIG. 26C) Detection of apoptotic cells using TUNEL staining and flow cytometry analysis of fetal articular cartilage explants cultured in the absence (control) or presence of a MYC (10058-F4) or STAT3 (STATTIC) inhibitor for 24 hours. (FIG. 26D) Quantification of proliferating cells via EdU incorporation in fetal articular cartilage explants and also by flow cytometry analysis for BrdU. Scale bars represent 100 μm. (FIG. 26E) Assessment of metabolic activity of human fetal articular chondrocytes cultured in the presence or absence of MYC or STAT3 inhibitors. (FIG. 26F) Migration capacity of fetal articular chondrocytes was assessed using a Transwell® assay in the absence or presence of MYC and STAT3 inhibitors. (FIG. 26G) Protein levels of MYC and pSTAT3 were measured in adult human articular chondrocytes with and without incubation with LIF. Data are shown normalized to histone H3. (FIG. 26H) Migratory capacity of adult human articular chondrocytes in a Transwell® assay measured in the presence or absence of LIF. (FIG. 26I) Single adult human articular chondrocytes were cultured with or without LIF for 5 weeks to allow detection of colony-forming cells. (FIG. 26J) Explants of adult pig articular cartilage were incubated with EdU in the presence or absence of LIF to detect proliferating cells. Scale bars represent 25 μm.
To assess the functional consequences of LIF signaling, explants of fetal cartilage were cultured with inhibitors of MYC or STAT3 (Schust et al., 2006) and then TUNEL stained; flow cytometry was used to quantitate the results of parallel experiments. […] MYC activity has been documented previously in cancer cell lines to regulate mitochondrial function (Fan et al., 2010). […]
TdT-mediated dUTP nick-end labeling (TUNEL) or EdU assays were performed by using in situ cell death detection kit (TUNEL, Roche Diagnostics GmbH, Germany) or Click-iT® Assay Kit obtained from Invitrogen (Carlsbad, Calif.), respectively, as described in the manufacturer's protocol. […] After staining sections were analyzed using fluorescent microscopy. Apoptosis was evaluated by flow cytometry with a Fortessa (BD Biosciences, San Jose, Calif.) cytometer using the Annexin V-FITC (Miltenyi Biotec, San Diego, Calif.) antibody. […]

[3] = test system: fetal BMPR1B+ chondrocytes; test: Clonogenic potential of fetal chondrocytes; format: cell-based, human
Text: FIGS. 12A-12D. […] Cell sorting results for control (FIG. 12A), p-STAT3 inhibitor (FIG. 12B) and c-MYC inhibitor (FIG. 12C). y-axis: FSC (forward scatter). x-axis: increasing concentration of Annexin V-FITC. (FIG. 12D) Histogram depicting % clonogenic cells (fetal BMPR1B+ chondrocytes) under: control, p-STAT3 and c-MYC inhibitor conditons.
To test the ability of LIF to stimulate LIFR^+ cells and cause their activation in situ, we exposed human adult articular cartilage cells to high doses of LIF for 72 hours (FIG. 5A).
For clonal assays cartilage cells were sorted by FACS and deposited into 96-well culture plates at 1 cell/well in DMEM/F12 culture medium supplemented with 1% FCS with or without LIF or RCGD 423. After 4 weeks clones (colonies with 50 cells or more) were counted using light microscopy in at least 300 wells for each culture condition.

BMPR1B+ chondrocytes = test: Retention of BMPR1B+ chondrocytes in culture (flow cytometry); format: cell-based, pig
Description: FIG. 35. RCGD 423 Preserves BMPR1B+ Chondrocytes in Culture. Adult pig chondrocytes were cultured in the presence of various cytokines or RCGD 423 and the number of cells expressing BMPR1B were quantitated using flow cytometry. Know mitogens for cartilage, including PDGF-BB and FGF2, promoted dramatic loss of BMPR1B^+ cells. In contrast, RCGD 423 and LIF acted to maintain cells with the BMPR1B+ phenotype.
BMPR1B+LIFR+ human adult articular chondrocytes were sorted using FACS and deposited in 96-well culture plates at density 10,000 cells per well in DMEM/F12 culture medium (Invitrogen) supplemented with 1% FBS. Growth factors or RCGD 423 were added at the time of plating. After 1, 3 and 7 days cultures were re-analyzed with FACS using an antibody against BMPR1B.

[4] = test system: MAPK, AKT, NF-κB pathways; test: Western blot of MAPK, AKT and NF-κB signaling in adult pig articular chondrocytes; format: cell-based; conditions: 24 hours
Description: (§1) FIGS. 30A-30B. […] (FIG. 30A) Adult pig articular chondrocytes were cultured for 24 hours with the indicated cytokines or RCGD 423 and the levels of pSTAT3 and MYC were measured with respect to histone H3. Representative data for other proteins in the MAPK (p38 and MEK1/2), AKT (phospho-AKT; pAKT) or NF-KB (NF-KB p65) are also shown. (FIG. 30B) Levels of transcription of genes indicative of a catabolic response were determined via quantitative PCR in adult pig articular chondrocytes treated with OSM, IL-6, TNF-α, LIF or RCGD 423. Data are represented at mean±SD.
(§2) Cartilage degeneration is generally considered a feed-forward process, in which small losses of chondrocytes result in microenvironmental changes including induction of an inflammatory response and other pro-catabolic events (Hunziker, 2002). In turn, these alterations in the joint milieu promote production of matrix degrading proteins including MMPs (collagenases) and proteins of the ADAMTS family (aggrecanases). LIF has been implicated in promoting this cycle of matrix destruction during the pathogenesis of osteoarthritis (Hui et al., 2000; Lotz et al., 1992), although its role in this process has been controversial. In order to better understand the mechanism of action of LIF, RCGD 423 and known pro-inflammatory cytokines in the promotion of degeneration, we stimulated adult pig articular chondrocytes with these molecules and quantitated the levels of activated downstream proteins that mediate the cellular signaling response (FIG. 30A).
(§3) Treated and non-treated ells were lysed in RIPA Lysis and Extraction Buffer (Pierce, Rockford, Ill.) containing protease inhibitors (Pierce) followed by sonication with a 15-second pulse at a power output of 2 using the VirSonic 100 (SP Industries Company, Warminster, Pa.). Protein concentrations were determined by BCA protein assay (Pierce). Proteins were resolved with SDS-PAGE utilizing 4-15% Mini-PROTEAN TGX Precast Gels and transferred to Trans-Blot Turbo Transfer Packs with a 0.2-μm pore-size nitrocellulose membrane. The SDS-PAGE running buffer, 4-15% Mini-PROTEAN TGX Precast Gels, Trans-Blot Turbo Transfer Packs with a 0.2-μm pore-size nitrocellulose membrane were purchased from Biorad (Hercules, Calif.). Nitrocellulose membranes were blocked in 5% nonfat milk in 0.05% (v/v) Tween 20 (PBST) (Corning, Manassas, Va.). Membranes were then incubated with primary antibodies phospho-STAT3 (#9131), MYC (#5605), NF-κB p65 (#D14E12), pAKT (#9272) Histone 3 (#9715) from Cell Signaling, (Danvers, Mass.); MEK1/2 (ab70613) and p38 (ab795) from Abcam (Cambridge, Mass.) overnight. After washing in PBS containing 0.05% (v/v) Tween 20 (PBST), membranes were incubated with Goat anti-Rabbit IgG (H+L) Secondary Antibody (Thermo Scientific Rockford, Ill.). After washing, membranes were developed with the Clarity Western ECL Blotting Substrate (Hercules, Calif.).

[5] = test system: MMP13, ADAMTS4 and ADAMTS5; test: Quantitative PCR of catabolic genes in adult pig articular chondrocytes; format: cell-based
Description: as §1, §2
Total RNA was extracted using RNeasy Micro Kit (QIAGEN, Valencia, Calif.) according to the manufacturer's protocol. Quantitative reverse transcription PCR was performed using Bio-Rad T100 Thermal Cycler (Bio-Rad, Hercules, Calif.). Primer sequences are available upon request.

pSTAT3 and MYC = test: Western blot of pSTAT3 and MYC in adult pig articular chondrocytes; format: cell-based; conditions: for levels of MYC / levels of pSTAT3: adult pig articular chondrocytes, treated vs untreated, relative to histone H3
Text: Only early passages of chondrocytes (passage 0-2) were used for experimentation to avoid de-differentiation and loss of cartilage phenotype (Wu et al., 2014). Cartilage explants were made using 1, 2 or 8 mm biopsy punch and wet weight of each explant determined prior to experimentation. For cell isolation cartilage tissue was digested as described previously (Wu et al., 2015). Postnatal paraffin embedded joint and growth plate specimens were kindly donated by Dr Marcel Karperien from the University of Twente (Netherlands) and Dr Nick Bernthal from University of California Los Angeles. All donated material was anonymous and carried no personal identifiers. Cell culture reagents were purchased from Life Technologies, Inc. (Grand Island, N.Y.). Growth factors LIF, OSM, IL-6, TNF-α, IL-1β were purchased from Life Technologies, Inc (Grand Island, N.Y.). STATTIC, 10058-F4, SCl44 hydrochloride, and CP-690550 were purchased from Sigma Aldrich (St. Louis, Mo.). RCGD 423 (N-(4-Bromophenyl)-4-phenyl-1,3-thiazol-2-amine) was synthesized and provided by MolPort (Riga, Latvia). Fetal, adult and pig chondrocytes were cultured in DMEM F12 medium containing 10% (vol/vol) fetal bovine serum and 1% Penicillin-Streptomycin (vol/vol) at 37° C. in a humidified atmosphere of 95% aid and 5% CO2. Media was replenished with DMEM F12 medium containing 1% (vol/vol) fetal bovine serum and 1% Penicillin-Streptomycin (vol/vol) once treatments were added. For 3-dimensional (3D) cell cultures adult human articular chondrocytes were incubated with or without RCGD 423 using 10% solution of Mebiol® hydrogel from Cosmo Bio (Carlsbad, Calif.) in X-vivo 15 serum free medium from Lonza (Walkersville, Md.) as described previously (Wu et al., 2014).
as §3

Molecule: CCc1ccc(/C=C2/SC(=S)NC2=O)cc1 [10058-F4]
- glycolysis [1]: unaffected
- incorporation of BrdU and EdU (fetal cartilage explants): greatly reduced
- fetal chondrocyte survival [2]: markedly reduced
- apoptotic cells [2]: strongly significant increases
- clonogenic / clonal potential of fetal chondrocytes [3]: markedly reduced

Molecule: O=[N+]([O-])c1ccc2c(c1)S(=O)(=O)C=C2 [STATTIC]
- glycolysis [1]: unaffected
- incorporation of BrdU and EdU (fetal cartilage explants): greatly reduced
- fetal chondrocyte survival [2]: markedly reduced
- apoptotic cells [2]: strongly significant increases
- clonogenic / clonal potential of fetal chondrocytes [3]: dramatically reduced
- clonogenic / clonal potential of fetal chondrocytes ([3]; listed as p-STAT3 inhibitor): markedly reduced

Molecule: FGF2: known mitogen for cartilage
- BMPR1B+ chondrocytes in culture (BMPR1B+ chondrocytes): dramatic loss

Molecule: IL-6: IL-6 family cytokine
- activation of AKT [4]: stimulated the activation
- activation of the MAPK pathway [4]: stimulated the activation
- transcription of matrix degrading enzymes (MMP13, ADAMTS4 and ADAMTS5) [5]: neither cytokine resulted in substantial transcriptional upregulation
- levels of MYC (pSTAT3 and MYC): increase
- levels of pSTAT3 (pSTAT3 and MYC): increase

Molecule: TNF-α
- NF-κB protein [4]: increased
- activation of AKT [4]: strong activation
- activation of the MAPK pathway [4]: strong activation
- transcription of matrix degrading enzymes (MMP13, ADAMTS4 and ADAMTS5) [5]: upregulation
- levels of MYC (pSTAT3 and MYC): inhibit accumulation
- levels of pSTAT3 (pSTAT3 and MYC): inhibit accumulation
- increases in pSTAT3 and MYC in the presence of RCGD 423 (pSTAT3 and MYC; co-stimulation of cytokine and RCGD 423): completely suppressed; also recorded: prevents the increases
